Measurements: US20250115943A1, “SYSTEM AND METHOD FOR ANTIMICROBIAL SUSCEPTIBILITY TESTING” (priority 2023, published 2025)
≈ marks a conversion by molar mass, not a printed value. Where two headings read alike, the source gives them in different places.

What was measured:
S. aureus ATCC 29213 [1] = settings: CLSI M100-Ed34E; cited from earlier work
E. coli ATCC 25922 [2] = test: CytoSPAR BLAST antibiotic susceptibility test; type: cell-based; settings: for MIC: Escherichia coli; for S, I, R: susceptible, intermediate, resistant category
Source text: (§1) The disclosed technology, which is referred to as the CytoSPAR BLAST (Bacteria Labeling Antibiotic Susceptibility Test) system, is used to quantitatively assess bacterial minimal inhibitory concentration of antibiotics for in vitro susceptibility testing. Used as an aid in diagnosis for clinicians in determining potential treatment options for patients suspected of having a microbial infection, BLAST is intended to determine susceptibility of microorganisms to the listed antibiotics (or other antimicrobials) according to manufacturer's standards. The system is intended for use with clinical isolates from liquid culture and colonies grown on agar (solid medium) or directly from urine samples. Certain implementations of BLAST determine antibiotic susceptibility for a wide range of bacteria obtained from various types of patient samples, including samples from individuals suffering from urinary tract infections. The disclosed technology includes a high-throughput assay that directly detects bacterial susceptibility to a library of frequently used antibiotics and covers both Gram-negative and Gram-positive bacteria.
(§2) The test incorporates a non-canonical amino acid (ncAA) into newly produced proteins. The incorporated ncAA includes a reactive group which allows a specific modification and detection of the living bacteria. The assay involves bacterial incorporation of the ncAA, a chemical reaction between a reactive group and a fluorophore-tagged ligand, and detection of the newly fluorescent-tagged bacteria using a fluorescent plate reader or functionally similar device. The ncAA is added to bacterial growth media and is incorporated into newly synthesized bacterial proteins. The reactive groups on the ncAA are not naturally found in bacteria and act as a specific reactive group for bacteria undergoing active protein synthesis. […] The entire process is performed in a microtiter filter plate for high-throughput scale-up. Alternatively, a normal 96-well plate can also be used in which case centrifugation is used to wash the plate instead of filtration.
(§3) In an example embodiment, bacterial samples are first diluted and incubated in acclimatization media. After treatment with one or more antimicrobials, the ncAA is added and is taken up by living bacteria during protein biosynthesis in a process called labeling. […] The Click-Chemistry reaction between the alkyne group of the ncAA and the azide group of the fluorophore-tagged ligand requires the presence of copper in the reduced state-copper (I). In other implementations, the functional groups of the click chemistry reaction can be changed so that the ncAA has the azide group and the dye has the alkyne group. […] Other reducing agents may be used in the BLAST assay, for example, aldoses (sugars) including glyceraldehyde, glucose, and ribose to replace sodium ascorbate. Likewise, alternate chelators may be used (e.g., histidine in place of BTTAA). In some implementations, metal-free click chemistry reactions are performed without using copper.
(§4) Using the BLAST system, tests can be performed on isolates or direct urine samples. Isolates may be from urine, blood, or other body fluids. Isolated bacteria may be either Gram-positive or Gram-negative. In an example implementation, living bacterial samples in acclimatization media (Buffer A) are distributed in a microtiter filter plate, wherein certain predetermined wells include antibiotics of interest at different concentrations. These antibiotics are arrayed with increasing concentrations in adjacent wells so that the bacterial response can be measured against each specific concentration. The response is measured quantitatively, and a value that corresponds to the ability of the bacteria to metabolize and grow is measured.

S. aureus ATCC 29213 [3] = test: CytoSPAR BLAST antibiotic susceptibility test; type: cell-based; settings: for S, I, R: susceptible, intermediate, resistant category; for MIC: Staphylococcus aureus
Source text: as §1, §2, §3, §4

E. coli ATCC 25922 [4] = settings: CLSI M100-Ed34E, cited from earlier work
P. mirabilis LSI 4698 [5] = test: reference broth microdilution (rBMD); type: cell-based; settings: Proteus mirabilis, LSI4698
Experimental: Different bacterial strains were tested against different antibiotics and for each pair tested, the BLAST MIC value was compared to the CLSI QC range where available, or to the reference broth microdilution (rBMD) MIC which was determined in parallel with the BLAST assay following the CLSI protocols (see references [8] [9]).

P. mirabilis LSI 4933 [6] = test: CytoSPAR BLAST antibiotic susceptibility test; type: cell-based
Source text: as §1, §2, §3, §4

K. pneumoniae LSI 4552 [7] = test: CytoSPAR BLAST antibiotic susceptibility test; type: cell-based
Source text: as §1, §2, §3, §4

P. mirabilis LSI 4698 [8] = test: CytoSPAR BLAST antibiotic susceptibility test; type: cell-based
Source text: as §1, §2, §3, §4

E. coli LSI 770 [9] = test: CytoSPAR BLAST antibiotic susceptibility test; type: cell-based; settings: E. coli LSI 770; for MIC: Escherichia coli, LSI770
Source text: as §1, §2, §3, §4

K. pneumoniae LSI CT1045 [10] = test: CytoSPAR BLAST antibiotic susceptibility test; type: cell-based; settings: susceptible, intermediate, resistant category
Source text: as §1, §2, §3, §4

P. mirabilis LSI 4933 [11] = test: reference broth microdilution (rBMD); type: cell-based; settings: Proteus mirabilis, LSI4933
Experimental: (§5) Following optimization of the BLAST assay, two other tests were performed in which 12 antibiotics (covering different classes) and 8 bacterial strains (Gram-positive and Gram-negative) were assayed using the same method as described above. Different bacterial strains were tested against different antibiotics and for each pair tested, the BLAST MIC value was compared to the CLSI QC range where available, or to the reference broth microdilution (rBMD) MIC which was determined in parallel with the BLAST assay following the CLSI protocols (see references [9]).

K. pneumoniae LSI 4552 [12] = test: reference broth microdilution (rBMD); type: cell-based; settings: Klebsiella pneumoniae, LSI4552
Experimental: as §5

K. pneumoniae LSI CT1045 [13] = test: reference broth microdilution (rBMD); type: cell-based; settings: Klebsiella pneumoniae, LSICT1045
Experimental: as §5

E. coli LSI 770 [14] = test: reference broth microdilution (rBMD); type: cell-based
Experimental: as §5
The inoculated urine cultures were incubated overnight at 35+2° C. Each urine culture was centrifuged, and the sediment used to prepare the BLAST inoculum of 5.0×10^5 CFU/mL to start the assay as described in the protocols section. […] The spiked urine samples were tested in parallel with isolates and the resultant BLAST MIC values were compared. In addition to the BLAST test, all the samples were also tested using the reference broth microdilution (rBMD) method and the MIC values were compared.

[15] = ATCC25922, Table 6, optimized BLAST, cutoff 0.8, read-out: MIC BLAST
[16] = ATCC29213, Table 6, S. aureus ATCC 29213, optimized BLAST, cutoff 0.8, read-out: MIC BLAST
[17] = susceptible, intermediate, resistant category

SMILES: CC1(C)S[C@@H]2[C@H](NC(=O)[C@H](N)c3ccccc3)C(=O)N2[C@H]1C(=O)O [Ampicillin, ampicillin]
- MIC CLSI QC Range (S. aureus ATCC 29213 [1]): 0.5 to 2 µg/mL
- MIC (E. coli ATCC 25922 [2]; [15]): 4 µg/mL (≈ 11.4 µM)
- S, I, R (E. coli ATCC 25922 [2]): Susceptible
- S, I, R (S. aureus ATCC 29213 [3]; S. aureus ATCC 29213): Susceptible

SMILES: CO[C@@]1(NC(=O)Cc2cccs2)C(=O)N2C(C(=O)O)=C(COC(N)=O)CS[C@@H]21 [Cefoxitin, cefoxitin]
- MIC (E. coli ATCC 25922 [2]; [15]): 4 µg/mL (≈ 9.36 µM)
- S, I, R (E. coli ATCC 25922 [2]): Susceptible
- S, I, R (S. aureus ATCC 29213 [3]; S. aureus ATCC 29213): Susceptible
- MIC (S. aureus ATCC 29213 [3]; [16]): 1 µg/mL (≈ 2.34 µM)

SMILES: CO/N=C(\C(=O)N[C@@H]1C(=O)N2C(C(=O)O)=C(CSc3nc(=O)c(=O)[nH]n3C)CS[C@H]12)c1csc(N)n1 [Ceftriaxone, ceftriaxone]
- S, I, R (E. coli ATCC 25922 [2]): Susceptible
- S, I, R (S. aureus ATCC 29213 [3]; S. aureus ATCC 29213): Susceptible
- MIC (S. aureus ATCC 29213 [3]; [16]): 1 µg/mL (≈ 1.8 µM)

SMILES: CO/N=C(\C(=O)N[C@@H]1C(=O)N2C(C(=O)O)=C(COC(N)=O)CS[C@H]12)c1ccco1 [Cefuroxime, cefuroxime]
- MIC CLSI QC Range (S. aureus ATCC 29213 [1]): 0.5 to 2 µg/mL
- MIC (E. coli ATCC 25922 [2]; [15]): 4 µg/mL (≈ 9.43 µM)
- S, I, R (E. coli ATCC 25922 [2]): Susceptible
- S, I, R (S. aureus ATCC 29213 [3]; S. aureus ATCC 29213): Susceptible
- MIC (S. aureus ATCC 29213 [3]; [16]): 0.25 µg/mL (≈ 0.589 µM)

SMILES: CC1=C(C(=O)O)N2C(=O)[C@@H](NC(=O)[C@H](N)c3ccccc3)[C@H]2SC1 [Cephalexin, cephalexin]
- MIC CLSI QC Range (S. aureus ATCC 29213 [1]): 0.25 to 1 µg/mL
- MIC CLSI QC Range (E. coli ATCC 25922 [4]): 1.0 to 4.0 µg/mL
- MIC (E. coli ATCC 25922 [2]; ATCC25922, read-out: MIC BLAST, Table 6, optimized BLAST, cutoff 0.8): 16 µg/mL (≈ 46.1 µM)
- S, I, R (E. coli ATCC 25922 [2]): Susceptible
- S, I, R (S. aureus ATCC 29213 [3]; S. aureus ATCC 29213): Susceptible
- MIC (S. aureus ATCC 29213 [3]; ATCC29213, read-out: MIC BLAST, Table 6, S. aureus ATCC 29213, optimized BLAST, cutoff 0.8): 1 µg/mL (≈ 2.88 µM)

SMILES: C[C@H]1c2cccc(O)c2C(=O)C2=C(O)[C@]3(O)C(=O)C(C(N)=O)=C(O)[C@@H](N(C)C)[C@@H]3[C@@H](O)[C@@H]21 [Doxycycline, doxycycline]
- MIC (P. mirabilis LSI 4698 [5]): 32 µg/mL (≈ 72 µM)
- MIC CLSI QC Range (E. coli ATCC 25922 [4]; listed as doxycycline): 0.5 to 2 µg/mL
- MIC CLSI QC Range (E. coli ATCC 25922 [4]): 0.5 to 2.0 µg/mL
- MIC (P. mirabilis LSI 4933 [6]; Proteus mirabilis, LSI4933, Table 7): 1.1 µg/mL (≈ 2.48 µM)
- S, I, R (P. mirabilis LSI 4933 [6]; [17]): Susceptible
- MIC (E. coli ATCC 25922 [2]; ATCC25922, Table 7, read-out: MIC BLAST): 0.14 µg/mL (≈ 0.315 µM)
- MIC (E. coli ATCC 25922 [2]; ATCC25922, Table 8, isolates, 5 × 10^5 CFU/mL, read-out: MIC BLAST Isolates): 0.14 µg/mL (≈ 0.315 µM)
- MIC (E. coli ATCC 25922 [2]; ATCC25922, Table 8, spiked urine sample, 5 × 10^5 CFU/mL, read-out: MIC BLAST Spiked Urine): 0.28 µg/mL (≈ 0.63 µM)
- S, I, R (E. coli ATCC 25922 [2]): Susceptible
- MIC (K. pneumoniae LSI 4552 [7]; Klebsiella pneumoniae, LSI4552, Table 7): 1 µg/mL (≈ 2.25 µM)
- S, I, R (K. pneumoniae LSI 4552 [7]; [17]): Susceptible
- MIC (P. mirabilis LSI 4698 [8]; Proteus mirabilis, LSI4698, Table 7): 4.4 µg/mL (≈ 9.9 µM)
- S, I, R (P. mirabilis LSI 4698 [8]; [17]): Susceptible
- S, I, R (E. coli LSI 770 [9]; [17]): Resistant
- MIC (E. coli LSI 770 [9]; Table 7, read-out: MIC BLAST): 71 µg/mL (≈ 160 µM)
- MIC (E. coli LSI 770 [9]; Table 8, isolates, 5 × 10^5 CFU/mL, read-out: MIC BLAST Isolates): 71 µg/mL (≈ 160 µM)
- MIC (E. coli LSI 770 [9]; Table 8, spiked urine sample, 5 × 10^5 CFU/mL, read-out: MIC BLAST Spiked Urine): 71 µg/mL (≈ 160 µM)
- S, I, R (S. aureus ATCC 29213 [3]; S. aureus ATCC 29213): Susceptible
- MIC (S. aureus ATCC 29213 [3]; ATCC29213, S. aureus ATCC 29213, 5×10^6 CFUs/mL, cutoff 0.8, FIGS. 19-21, read-out: BLAST MIC): < 0.0625 µg/mL
- MIC (S. aureus ATCC 29213 [3]; ATCC29213, Table 7, S. aureus ATCC 29213, read-out: MIC BLAST): 0.02 µg/mL (≈ 0.045 µM)
- MIC (S. aureus ATCC 29213 [3]; ATCC29213, Table 8, S. aureus ATCC 29213, isolates, 5 × 10^5 CFU/mL, read-out: MIC BLAST Isolates): 0.02 µg/mL (≈ 0.045 µM)
- MIC (S. aureus ATCC 29213 [3]; ATCC29213, Table 8, S. aureus ATCC 29213, spiked urine sample, 5 × 10^5 CFU/mL, read-out: MIC BLAST Spiked Urine): 0.02 µg/mL (≈ 0.045 µM)
- S, I, R (K. pneumoniae LSI CT1045 [10]): Resistant
- MIC (P. mirabilis LSI 4933 [11]): 4 µg/mL (≈ 9 µM)
- MIC (K. pneumoniae LSI 4552 [12]): 2 µg/mL (≈ 4.5 µM)
- MIC (K. pneumoniae LSI CT1045 [13]): 8 µg/mL (≈ 18 µM)
- MIC (E. coli LSI 770 [14]; Escherichia coli, LSI770): 64 µg/mL (≈ 144 µM)
- MIC rBMD (E. coli LSI 770 [14]; Table 8, E. coli LSI 770, geometric mean MIC rounded to nearest 2-fold dilution, n = 3): 64 µg/mL (≈ 144 µM)

SMILES: C[C@@H](O)[C@H]1C(=O)N2C(C(=O)O)=C(S[C@@H]3CN[C@H](C(=O)N(C)C)C3)[C@H](C)[C@H]12 [Meropenem, meropenem]
- S, I, R (E. coli ATCC 25922 [2]): Susceptible
- S, I, R (S. aureus ATCC 29213 [3]; S. aureus ATCC 29213): Susceptible
